Reference: US20090298820A1, “3-SUBSTITUTED-1H-PYRROLO[2,3-B]PYRIDINE AND 3-SUBSTITUTED-1H-PYRROLO[3,2-B]PYRIDINE COMPOUNDS, THEIR USE AS MTOR KINASE AND PI3 KINASE INHIBITORS, AND THEIR SYNTHESES” (Wyeth, priority 2008, published 2009)

Legend:
PI3Kα = PI3Kα (Homo sapiens, UniProt P42336); test: PI3K-alpha fluorescence polarization assay; assay type: biochemical; settings: read-out: PI3Kα Median IC50
mTOR = mTOR (Homo sapiens, UniProt P42345); test: mTOR enzyme assay (DELFIA format, His6-S6K substrate); assay type: biochemical; settings: read-out: mTOR Kinase Median IC50
PI3Kγ = PI3Kγ (Homo sapiens, UniProt P48736); test: PI3K-gamma fluorescence polarization assay; assay type: biochemical; settings: read-out: PI3Kγ Median IC50
Chain of PI3Kγ (P48736 whole entry, species assumed): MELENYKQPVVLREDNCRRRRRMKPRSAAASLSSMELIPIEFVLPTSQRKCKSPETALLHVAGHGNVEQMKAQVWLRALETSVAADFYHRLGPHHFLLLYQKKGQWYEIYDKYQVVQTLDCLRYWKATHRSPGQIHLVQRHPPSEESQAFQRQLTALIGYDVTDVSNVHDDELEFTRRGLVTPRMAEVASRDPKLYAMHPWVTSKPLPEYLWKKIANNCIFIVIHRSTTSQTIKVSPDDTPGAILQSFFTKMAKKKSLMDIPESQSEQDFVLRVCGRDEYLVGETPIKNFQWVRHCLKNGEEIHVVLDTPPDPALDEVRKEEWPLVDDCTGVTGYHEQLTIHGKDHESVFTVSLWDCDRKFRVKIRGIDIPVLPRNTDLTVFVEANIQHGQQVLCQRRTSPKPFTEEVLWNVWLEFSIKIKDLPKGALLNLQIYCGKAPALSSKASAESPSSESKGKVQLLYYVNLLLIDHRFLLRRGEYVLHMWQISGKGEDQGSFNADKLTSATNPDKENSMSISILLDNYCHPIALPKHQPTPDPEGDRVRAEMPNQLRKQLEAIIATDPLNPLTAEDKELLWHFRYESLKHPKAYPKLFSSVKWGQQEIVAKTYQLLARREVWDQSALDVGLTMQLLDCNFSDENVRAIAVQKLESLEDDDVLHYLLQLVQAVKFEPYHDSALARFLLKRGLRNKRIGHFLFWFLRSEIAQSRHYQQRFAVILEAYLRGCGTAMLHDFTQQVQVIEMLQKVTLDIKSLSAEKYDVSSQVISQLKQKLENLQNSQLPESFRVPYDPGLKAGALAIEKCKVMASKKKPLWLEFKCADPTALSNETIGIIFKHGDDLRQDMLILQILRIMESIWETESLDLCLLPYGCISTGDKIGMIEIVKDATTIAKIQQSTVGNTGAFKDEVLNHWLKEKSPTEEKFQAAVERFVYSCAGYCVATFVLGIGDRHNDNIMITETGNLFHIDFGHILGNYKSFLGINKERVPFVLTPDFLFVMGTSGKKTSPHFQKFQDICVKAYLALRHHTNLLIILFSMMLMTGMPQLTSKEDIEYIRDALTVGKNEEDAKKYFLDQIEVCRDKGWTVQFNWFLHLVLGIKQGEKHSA

Chain of PI3Kα (P42336 whole entry, species assumed): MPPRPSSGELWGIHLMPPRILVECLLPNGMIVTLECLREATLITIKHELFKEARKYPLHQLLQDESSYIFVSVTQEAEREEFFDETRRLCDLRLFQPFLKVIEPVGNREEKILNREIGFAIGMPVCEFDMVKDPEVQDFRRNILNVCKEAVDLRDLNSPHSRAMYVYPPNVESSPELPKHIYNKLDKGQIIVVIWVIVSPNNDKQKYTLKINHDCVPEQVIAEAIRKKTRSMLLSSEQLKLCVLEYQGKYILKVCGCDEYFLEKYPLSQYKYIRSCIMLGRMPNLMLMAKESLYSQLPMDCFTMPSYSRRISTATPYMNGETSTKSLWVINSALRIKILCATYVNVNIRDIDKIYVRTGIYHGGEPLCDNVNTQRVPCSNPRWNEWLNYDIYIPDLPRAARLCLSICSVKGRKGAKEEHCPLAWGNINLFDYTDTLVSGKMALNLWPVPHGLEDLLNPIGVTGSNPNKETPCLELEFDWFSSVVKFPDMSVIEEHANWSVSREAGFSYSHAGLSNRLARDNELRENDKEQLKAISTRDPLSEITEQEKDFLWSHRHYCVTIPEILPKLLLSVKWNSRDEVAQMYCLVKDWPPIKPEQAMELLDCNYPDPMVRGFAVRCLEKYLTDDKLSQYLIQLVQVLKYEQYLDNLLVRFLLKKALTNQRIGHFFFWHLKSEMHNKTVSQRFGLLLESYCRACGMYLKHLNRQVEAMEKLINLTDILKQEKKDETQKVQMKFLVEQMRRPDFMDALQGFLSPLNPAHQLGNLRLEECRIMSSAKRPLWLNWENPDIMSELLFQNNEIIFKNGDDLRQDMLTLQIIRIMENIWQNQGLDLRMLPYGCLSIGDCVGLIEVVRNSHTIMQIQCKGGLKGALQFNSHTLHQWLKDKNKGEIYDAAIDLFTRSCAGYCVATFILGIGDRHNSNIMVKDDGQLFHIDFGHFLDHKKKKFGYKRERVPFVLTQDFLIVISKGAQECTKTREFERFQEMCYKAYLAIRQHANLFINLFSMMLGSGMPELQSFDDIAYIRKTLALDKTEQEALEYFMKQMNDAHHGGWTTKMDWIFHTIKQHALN
Chain of PI3Kα (P27986 whole entry partner, species assumed): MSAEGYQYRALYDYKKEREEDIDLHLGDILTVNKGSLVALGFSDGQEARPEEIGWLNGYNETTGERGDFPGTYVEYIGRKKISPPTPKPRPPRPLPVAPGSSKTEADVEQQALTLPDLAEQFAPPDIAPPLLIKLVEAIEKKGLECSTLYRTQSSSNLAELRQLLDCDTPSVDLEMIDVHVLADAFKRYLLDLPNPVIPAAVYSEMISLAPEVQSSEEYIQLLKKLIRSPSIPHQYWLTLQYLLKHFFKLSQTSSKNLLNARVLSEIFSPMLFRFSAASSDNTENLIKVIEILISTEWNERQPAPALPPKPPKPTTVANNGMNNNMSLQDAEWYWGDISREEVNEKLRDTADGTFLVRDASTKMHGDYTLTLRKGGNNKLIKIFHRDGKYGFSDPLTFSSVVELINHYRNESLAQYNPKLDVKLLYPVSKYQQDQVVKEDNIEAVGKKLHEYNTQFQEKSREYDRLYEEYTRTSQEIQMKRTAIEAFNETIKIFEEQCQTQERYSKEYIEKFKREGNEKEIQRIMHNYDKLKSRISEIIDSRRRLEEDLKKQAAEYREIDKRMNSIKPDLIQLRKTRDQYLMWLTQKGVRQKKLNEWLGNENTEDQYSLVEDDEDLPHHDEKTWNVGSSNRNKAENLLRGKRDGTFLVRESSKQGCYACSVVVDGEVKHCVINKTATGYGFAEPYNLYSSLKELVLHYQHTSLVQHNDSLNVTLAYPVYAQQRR

melting point	IC50 (PI3Kα)	IC50 (mTOR)	IC50 (PI3Kγ)	Compound
239 to 244 °C	39 nM	3.1 nM	131 nM	CN1CCN(C(=O)C2CCN(c3ccnc4c3c(/C=C3\Oc5cccc(O)c5C3=O)cn4C)CC2)CC1 [Compound 164, (2Z)-4-hydroxy-2-[(1-methyl-4-{4-[(4-methylpiperazin-1-yl)carbonyl]piperidin-1-yl}-1H-pyrrolo[2,3-b]pyridin-3-yl)methylidene]-1-benzofuran-3(2H)-one]
235 to 240 °C	337 nM	16.5 nM	337 nM	CNC(=O)Nc1ccc2c(c1)C(=O)/C(=C/c1cn(C)c3nccc(N4CCC(C(=O)N5CCOCC5)CC4)c13)O2 [Compound 174, 1-methyl-3-[(2Z)-2-({1-methyl-4-[4-(morpholin-4-ylcarbonyl)piperidin-1-yl]-1H-pyrrolo[2,3-b]pyridin-3-yl}methylidene)-3-oxo-2,3-dihydro-1-benzofuran-5-yl]urea]
151 to 164 °C	> 10000 nM	19 nM	2410 nM	CN1CC2CC1CN2C(=O)C1CCN(c2ccnc3c2c(/C=C2\Oc4ccc(NC(=O)Nc5cccnc5)cc4C2=O)cn3C)CC1 (stereo not drawn) [Compound 272, 1-{(2Z)-2-[(1-methyl-4-{4-[(5-methyl-2,5-diazabicyclo[2.2.1]hept-2-yl)carbonyl]piperidin-1-yl}-1H-pyrrolo[2,3-b]pyridin-3-yl)methylidene]-3-oxo-2,3-dihydro-1-benzofuran-5-yl}-3-pyridin-3-ylurea]
264 to 268 °C	51 nM	2 nM	131 nM	Cn1cc(/C=C2\Oc3cccc(O)c3C2=O)c2c(N3CCC(C(=O)N4CC5CCC(C4)O5)CC3)ccnc21 [Compound 306, (2Z)-4-hydroxy-2-({1-methyl-4-[4-(8-oxa-3-azabicyclo[3.2.1]oct-3-ylcarbonyl)piperidin-1-yl]-1H-pyrrolo[2,3-b]pyridin-3-yl}methylidene)-1-benzofuran-3(2H)-one]

Second part, the molecule before the results:

Compound	melting point	IC50 (PI3Kα)	IC50 (mTOR)	IC50 (PI3Kγ)
CC(=O)c1ccc(-c2ccnc3c2c(/C=C2\Oc4cccc(O)c4C2=O)cn3C)cc1 [Compound 134, (2Z)-2-{[4-(4-acetylphenyl)-1-methyl-1H-pyrrolo[2,3-b]pyridin-3-yl]methylene}-4-hydroxy-1-benzofuran-3(2H)-one]	250 to 253 °C	55 nM	3.8 nM	89 nM
Cn1cc(/C=C2\Oc3cc(O)cc(O)c3C2=O)c2c(N3CCCC3)ccnc21 [Compound 46, (2Z)-4,6-dihydroxy-2-[(1-methyl-4-pyrrolidin-1-yl-1H-pyrrolo[2,3-b]pyridin-3-yl)methylene]-1-benzofuran-3(2H)-one]	312 to 315 °C	59 nM	1.6 nM	240 nM
CN(C)C(=O)Nc1ccc(-c2ccnc3c2c(/C=C2\Oc4cccc(O)c4C2=O)cn3C)cc1 [Compound 140, 3-(4-{3-[(Z)-(4-hydroxy-3-oxo-1-benzofuran-2(3H)-ylidene)methyl]-1-methyl-1H-pyrrolo[2,3-b]pyridin-4-yl}phenyl)-1,1-dimethylurea]	235 to 238 °C	59 nM	2 nM	74 nM
Cn1cc(/C=C2\Oc3cccc(O)c3C2=O)c2c(N3CC4CC3CN4)ccnc21 (stereo not drawn) [Compound 101, (2Z)-2-{[4-(2,5-diazabicyclo[2.2.1]hept-2-yl)-1-methyl-1H-pyrrolo[2,3-b]pyridin-3-yl]methylene}-4-hydroxy-1-benzofuran-3(2H)-one]	325 °C	20 nM	10.8 nM	339 nM
Cn1cc(/C=C2\Oc3cc(O)cc(O)c3C2=O)c2c(-c3cccc(S(C)(=O)=O)c3)ccnc21 [Compound 74, (2Z)-4,6-dihydroxy-2-({1-methyl-4-[3-(methylsulfonyl)phenyl]-1H-pyrrolo[2,3-b]pyridin-3-yl}methylene)-1-benzofuran-3(2H)-one]	315 to 320 °C	14 nM	1.6 nM	132 nM
